Counter-ions that a name gives are not always drawn.
Tests used:
P-gp (MDR1) = P-gp (MDR1) (Homo sapiens (Human), UniProt P08183); assay: MDR1 LLC-PK1 permeability assay: efflux ratio; details: pig, LLC-PK1
[1] = molecular target: full-length FLAG-tagged B-Raf(V600E) (Homo sapiens (Human), UniProt P15056, V600E); assay: BRAF V600E enzyme assay (TR-FRET competitive displacement of fluorescent tracer); type: binding; details: averaged IC50; 60 min at ambient temperature; 11-point dosing, top dose 10 μM
Text: A competitive displacement assay was configured for B-Raf that monitors the amount of a fluorescently-tagged “tracer” bound to B-Raf via TR-FRET from an anti-tag Eu-labeled antibody also bound to B-Raf.
[formula] • where: • Xmax Average Uninhibited Controls • Xmin Average Background
A 4-parameter logistic model was the fit to the POC data for each compound.

BCRP = BCRP (Homo sapiens (Human), UniProt Q9UNQ0); assay: BCRP MDCKII permeability assay: efflux ratio; details: dog
[2] = MDR1 LLC-PK1 and BCRP MDCKII permeability assay: permeability coefficient (Papp)

Chain of full-length FLAG-tagged B-Raf(V600E) (P15056 whole entry V600E): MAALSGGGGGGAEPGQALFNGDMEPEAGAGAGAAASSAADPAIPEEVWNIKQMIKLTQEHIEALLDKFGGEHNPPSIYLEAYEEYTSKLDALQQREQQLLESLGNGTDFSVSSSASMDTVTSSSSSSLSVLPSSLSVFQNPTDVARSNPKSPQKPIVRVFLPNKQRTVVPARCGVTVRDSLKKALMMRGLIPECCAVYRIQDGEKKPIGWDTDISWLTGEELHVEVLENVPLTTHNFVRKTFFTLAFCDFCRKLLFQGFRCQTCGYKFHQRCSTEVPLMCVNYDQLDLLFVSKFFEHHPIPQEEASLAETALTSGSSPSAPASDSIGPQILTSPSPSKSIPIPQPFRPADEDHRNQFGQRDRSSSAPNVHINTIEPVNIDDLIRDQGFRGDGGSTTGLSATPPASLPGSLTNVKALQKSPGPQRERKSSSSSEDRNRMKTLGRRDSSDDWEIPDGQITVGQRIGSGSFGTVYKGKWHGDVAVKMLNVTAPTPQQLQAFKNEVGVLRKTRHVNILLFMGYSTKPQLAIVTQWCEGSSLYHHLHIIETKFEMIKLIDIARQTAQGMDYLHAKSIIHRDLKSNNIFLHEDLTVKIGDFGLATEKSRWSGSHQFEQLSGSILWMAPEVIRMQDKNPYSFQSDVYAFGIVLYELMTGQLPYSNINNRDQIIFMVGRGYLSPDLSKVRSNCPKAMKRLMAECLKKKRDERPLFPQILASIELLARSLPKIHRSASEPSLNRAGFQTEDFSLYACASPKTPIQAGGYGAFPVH
Chain of BCRP (Q9UNQ0 whole entry, species assumed): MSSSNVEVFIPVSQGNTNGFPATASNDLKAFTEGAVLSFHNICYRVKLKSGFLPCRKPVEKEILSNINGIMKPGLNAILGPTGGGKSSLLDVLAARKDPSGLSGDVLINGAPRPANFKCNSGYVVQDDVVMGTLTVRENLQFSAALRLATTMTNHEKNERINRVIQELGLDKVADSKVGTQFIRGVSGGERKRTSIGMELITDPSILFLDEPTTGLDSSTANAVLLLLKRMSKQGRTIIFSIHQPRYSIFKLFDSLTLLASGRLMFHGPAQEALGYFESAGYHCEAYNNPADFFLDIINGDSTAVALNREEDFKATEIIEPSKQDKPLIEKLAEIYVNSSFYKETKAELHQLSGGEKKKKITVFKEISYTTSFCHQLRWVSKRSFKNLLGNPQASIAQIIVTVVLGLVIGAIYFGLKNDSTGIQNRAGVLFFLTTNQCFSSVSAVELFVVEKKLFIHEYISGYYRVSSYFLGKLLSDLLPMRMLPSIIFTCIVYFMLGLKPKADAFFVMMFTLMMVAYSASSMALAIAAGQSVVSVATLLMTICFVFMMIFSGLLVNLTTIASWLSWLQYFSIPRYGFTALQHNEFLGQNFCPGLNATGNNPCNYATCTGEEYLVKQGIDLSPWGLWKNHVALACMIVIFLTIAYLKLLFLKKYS
Chain of P-gp (MDR1) (P08183 whole entry, species assumed): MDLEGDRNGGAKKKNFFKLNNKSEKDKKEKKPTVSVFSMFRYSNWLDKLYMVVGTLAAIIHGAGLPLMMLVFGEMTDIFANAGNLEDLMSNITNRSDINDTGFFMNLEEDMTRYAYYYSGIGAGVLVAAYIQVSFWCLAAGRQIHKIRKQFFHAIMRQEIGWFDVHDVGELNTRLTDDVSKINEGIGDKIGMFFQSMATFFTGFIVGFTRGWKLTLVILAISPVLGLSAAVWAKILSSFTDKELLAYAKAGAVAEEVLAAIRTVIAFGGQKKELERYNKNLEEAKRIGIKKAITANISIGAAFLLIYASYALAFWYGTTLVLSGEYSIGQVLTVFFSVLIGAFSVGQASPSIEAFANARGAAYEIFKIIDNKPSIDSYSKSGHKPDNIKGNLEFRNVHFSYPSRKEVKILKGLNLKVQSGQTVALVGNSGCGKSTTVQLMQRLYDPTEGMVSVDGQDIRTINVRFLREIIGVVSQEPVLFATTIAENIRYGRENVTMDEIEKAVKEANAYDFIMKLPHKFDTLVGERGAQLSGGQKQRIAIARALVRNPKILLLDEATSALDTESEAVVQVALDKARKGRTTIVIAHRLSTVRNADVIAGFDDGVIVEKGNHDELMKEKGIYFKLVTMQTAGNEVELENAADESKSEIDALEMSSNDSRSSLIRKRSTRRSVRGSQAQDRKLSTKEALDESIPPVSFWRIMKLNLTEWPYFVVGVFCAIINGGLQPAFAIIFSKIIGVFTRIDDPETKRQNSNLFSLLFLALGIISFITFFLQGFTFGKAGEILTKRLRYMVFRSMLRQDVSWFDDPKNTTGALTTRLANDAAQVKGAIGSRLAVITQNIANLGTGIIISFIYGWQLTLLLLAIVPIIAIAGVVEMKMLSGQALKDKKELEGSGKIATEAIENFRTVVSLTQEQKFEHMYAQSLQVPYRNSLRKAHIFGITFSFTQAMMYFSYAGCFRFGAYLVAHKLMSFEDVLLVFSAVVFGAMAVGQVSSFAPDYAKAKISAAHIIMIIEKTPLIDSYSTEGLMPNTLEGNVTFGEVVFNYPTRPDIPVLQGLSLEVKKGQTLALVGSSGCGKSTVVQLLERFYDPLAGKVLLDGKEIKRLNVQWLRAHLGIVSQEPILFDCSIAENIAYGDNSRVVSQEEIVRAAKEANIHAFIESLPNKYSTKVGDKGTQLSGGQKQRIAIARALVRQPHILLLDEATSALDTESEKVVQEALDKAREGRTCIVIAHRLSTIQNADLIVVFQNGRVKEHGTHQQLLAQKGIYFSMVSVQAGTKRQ

Cc1c(Nc2c(F)ccc(NS(=O)(=O)CCCF)c2F)ccc2ncn(C)c(=O)c12 [Example 2, N-(3-((3,5-dimethyl-4-oxo-3,4-dihydroquinazolin-6-yl)amino)-2,4-difluorophenyl)-3-fluoropropane-1-sulfonamide]
efflux ratio at 2 h, 1 µM (P-gp (MDR1)): 3.92
IC50 [1]: 14.2 nM
efflux ratio at 2 h, 1 µM (BCRP): 18.6
Papp at 2 h, 1 µM [2]: 30.1 ×10⁻⁶ cm/s

CCCS(=O)(=O)Nc1cccc(Nc2ccc3ncn(C)c(=O)c3c2C)c1Cl [Example 3, N-(2-chloro-3-((3,5-dimethyl-4-oxo-3,4-dihydroquinazolin-6-yl)amino)phenyl)propane-1-sulfonamide]
efflux ratio at 2 h, 1 µM (P-gp (MDR1)): 1.37
IC50 [1]: 70.5 nM
efflux ratio at 2 h, 1 µM (BCRP): 0.87
Papp at 2 h, 1 µM [2]: 25.8 ×10⁻⁶ cm/s

CCCS(=O)(=O)Nc1cc(F)c(F)c(Nc2ccc3ncn(C)c(=O)c3c2C)c1F [Example 5, N-(3-((3,5-dimethyl-4-oxo-3,4-dihydroquinazolin-6-yl)amino)-2,4,5-trifluorophenyl)propane-1-sulfonamide]
efflux ratio at 2 h, 1 µM (P-gp (MDR1)): 2.24
IC50 [1]: 6.25 nM
efflux ratio at 2 h, 1 µM (BCRP): 8.33
Papp at 2 h, 1 µM [2]: 26.7 ×10⁻⁶ cm/s

Cc1c(Nc2c(F)c(F)cc(NS(=O)(=O)CCCF)c2F)ccc2ncn(C)c(=O)c12 [Example 6, N-(3-((3,5-dimethyl-4-oxo-3,4-dihydroquinazolin-6-yl)amino)-2,4,5-trifluorophenyl)-3-fluoropropane-1-sulfonamide]
efflux ratio at 2 h, 1 µM (P-gp (MDR1)): 4.68
IC50 [1]: 1.75 nM
efflux ratio at 2 h, 1 µM (BCRP): 25.2
Papp at 2 h, 1 µM [2]: 22.2 ×10⁻⁶ cm/s

Cc1c(Nc2c(F)c(F)cc(NS(=O)(=O)CCCF)c2Cl)ccc2ncn(C)c(=O)c12 [Example 8, N-(2-chloro-3-((3,5-dimethyl-4-oxo-3,4-dihydroquinazolin-6-yl)amino)-4,5-difluorophenyl)-3-fluoropropane-1-sulfonamide]
efflux ratio at 2 h, 1 µM (P-gp (MDR1)): 1.61
IC50 [1]: 1.45 nM
efflux ratio at 2 h, 1 µM (BCRP): 11.2
Papp at 2 h, 1 µM [2]: 27.5 ×10⁻⁶ cm/s

Cc1c(Nc2c(F)ccc(NS(=O)(=O)CCCF)c2Cl)ccc2ncn(C)c(=O)c12 [Example 10, N-(2-chloro-3-((3,5-dimethyl-4-oxo-3,4-dihydroquinazolin-6-yl)amino)-4-fluorophenyl)-3-fluoropropane-1-sulfonamide]
Papp at 2 h, 1 µM [2]: 41 ×10⁻⁶ cm/s

CCCS(=O)(=O)Nc1cc(F)cc(Nc2ccc3ncn(C)c(=O)c3c2C)c1F [Example 11, N-(3-((3,5-dimethyl-4-oxo-3,4-dihydroquinazolin-6-yl)amino)-2,5-difluorophenyl)propane-1-sulfonamide]
efflux ratio at 2 h, 1 µM (P-gp (MDR1)): 1.65
IC50 [1]: 16.1 nM
efflux ratio at 2 h, 1 µM (BCRP): 2.35
Papp at 2 h, 1 µM [2]: 28.6 ×10⁻⁶ cm/s

CCCS(=O)(=O)Nc1cc(F)cc(Nc2ccc3ncn(C)c(=O)c3c2C)c1Cl [Example 12, N-(2-chloro-3-((3,5-dimethyl-4-oxo-3,4-dihydroquinazolin-6-yl)amino)-5-fluorophenyl)propane-1-sulfonamide]
efflux ratio at 2 h, 1 µM (P-gp (MDR1)): 0.93
IC50 [1]: 9.75 nM
efflux ratio at 2 h, 1 µM (BCRP): 1.13
Papp at 2 h, 1 µM [2]: 27 ×10⁻⁶ cm/s

CCCS(=O)(=O)Nc1cc(Cl)cc(Nc2ccc3ncn(C)c(=O)c3c2C)c1F [Example 13, N-(5-chloro-3-((3,5-dimethyl-4-oxo-3,4-dihydroquinazolin-6-yl)amino)-2-fluorophenyl)propane-1-sulfonamide]
efflux ratio at 2 h, 1 µM (P-gp (MDR1)): 1.35
IC50 [1]: 4.6 nM
efflux ratio at 2 h, 1 µM (BCRP): 1.51
Papp at 2 h, 1 µM [2]: 24.3 ×10⁻⁶ cm/s

CCCS(=O)(=O)Nc1ccc(Cl)c(Nc2ccc3ncn(C)c(=O)c3c2C)c1Cl [Example 14, N-(2,4-dichloro-3-((3,5-dimethyl-4-oxo-3,4-dihydroquinazolin-6-yl)amino)phenyl)propane-1-sulfonamide]
efflux ratio at 2 h, 1 µM (P-gp (MDR1)): 1.38
IC50 [1]: 13.9 nM
efflux ratio at 2 h, 1 µM (BCRP): 1.08
Papp at 2 h, 1 µM [2]: 26.5 ×10⁻⁶ cm/s

CCCS(=O)(=O)Nc1ncc(Cl)c(Nc2ccc3ncn(C)c(=O)c3c2C)c1Cl [Example 15, N-(3,5-dichloro-4-((3,5-dimethyl-4-oxo-3,4-dihydroquinazolin-6-yl)amino)pyridin-2-yl)propane-1-sulfonamide]
efflux ratio at 2 h, 1 µM (P-gp (MDR1)): 1.87
IC50 [1]: 4.55 nM
efflux ratio at 2 h, 1 µM (BCRP): 4.5
Papp at 2 h, 1 µM [2]: 24.1 ×10⁻⁶ cm/s

CCCS(=O)(=O)Nc1ncc(F)c(Nc2ccc3ncn(C)c(=O)c3c2C)c1F [Example 16, N-(4-((3,5-dimethyl-4-oxo-3,4-dihydroquinazolin-6-yl)amino)-3,5-difluoropyridin-2-yl)propane-1-sulfonamide]
efflux ratio at 2 h, 1 µM (P-gp (MDR1)): 4.76
IC50 [1]: 17 nM
efflux ratio at 2 h, 1 µM (BCRP): 20.3
Papp at 2 h, 1 µM [2]: 21.3 ×10⁻⁶ cm/s

Cc1c(Nc2c(F)cnc(NS(=O)(=O)CCCF)c2F)ccc2ncn(C)c(=O)c12 [Example 17, N-(4-((3,5-dimethyl-4-oxo-3,4-dihydroquinazolin-6-yl)amino)-3,5-difluoropyridin-2-yl)-3-fluoropropane-1-sulfonamide]
efflux ratio at 2 h, 1 µM (P-gp (MDR1)): 5.07
IC50 [1]: 9.7 nM
efflux ratio at 2 h, 1 µM (BCRP): 25.3
Papp at 2 h, 1 µM [2]: 6.65 ×10⁻⁶ cm/s

CCCS(=O)(=O)Nc1ncc(F)c(Nc2ccc3ncn(C)c(=O)c3c2C)c1Cl [Example 18, N-(3-chloro-4-((3,5-dimethyl-4-oxo-3,4-dihydroquinazolin-6-yl)amino)-5-fluoropyridin-2-yl)propane-1-sulfonamide]
efflux ratio at 2 h, 1 µM (P-gp (MDR1)): 1.52
IC50 [1]: 7.85 nM
efflux ratio at 2 h, 1 µM (BCRP): 10.4
Papp at 2 h, 1 µM [2]: 27.9 ×10⁻⁶ cm/s

Cc1c(Nc2c(F)cnc(NS(=O)(=O)CCCF)c2Cl)ccc2ncn(C)c(=O)c12 [Example 19, N-(3-chloro-4-((3,5-dimethyl-4-oxo-3,4-dihydroquinazolin-6-yl)amino)-5-fluoropyridin-2-yl)-3-fluoropropane-1-sulfonamide]
efflux ratio at 2 h, 1 µM (P-gp (MDR1)): 3.24
IC50 [1]: 6.2 nM
efflux ratio at 2 h, 1 µM (BCRP): 21.1
Papp at 2 h, 1 µM [2]: 15.9 ×10⁻⁶ cm/s

[2H]C([2H])([2H])n1cnc2ccc(Nc3c(F)ccc(NS(=O)(=O)CCCF)c3Cl)c(C)c2c1=O [Example 23, N-(2-chloro-4-fluoro-3-((5-methyl-3-(methyl-d3)-4-oxo-3,4-dihydroquinazolin-6-yl)amino)-phenyl)-3-fluoropropane-1-sulfonamide]
Papp at 2 h, 1 µM [2]: 39.5 ×10⁻⁶ cm/s

CCCS(=O)(=O)Nc1ccc(F)c(Nc2ccc3ncn(C(C)C)c(=O)c3c2C)c1Cl [Example 36, N-(2-chloro-4-fluoro-3-((3-isopropyl-5-methyl-4-oxo-3,4-dihydroquinazolin-6-yl)amino)phenyl)propane-1-sulfonamide trifluoroacetate]
efflux ratio at 2 h, 1 µM (P-gp (MDR1)): 1.17
IC50 [1]: 26.4 nM
efflux ratio at 2 h, 1 µM (BCRP): 1.22

Cc1c(Oc2c(F)ccc(NS(=O)(=O)CCCF)c2F)ccc2ncn(C)c(=O)c12 [Example 56, N-(3-((3,5-dimethyl-4-oxo-3,4-dihydroquinazolin-6-yl)oxy)-2,4-difluorophenyl)-3-fluoropropane-1-sulfonamide]
efflux ratio at 2 h, 1 µM (P-gp (MDR1)): 2.81
IC50 [1]: 12.9 nM
efflux ratio at 2 h, 1 µM (BCRP): 3.14

CCCS(=O)(=O)Nc1nccc(Oc2ccc3ncn(C)c(=O)c3c2C)c1Cl [Example 57, N-(3-chloro-4-((3,5-dimethyl-4-oxo-3,4-dihydroquinazolin-6-yl)oxy)pyridin-2-yl)propane-1-sulfonamide]
efflux ratio at 2 h, 1 µM (P-gp (MDR1)): 0.91
IC50 [1]: 96 nM
efflux ratio at 2 h, 1 µM (BCRP): 2.08

Source: US11414404B2, “Compounds for the treatment of BRAF-associated diseases and disorders” (Array BioPharma Inc., priority 2019, dated 2022)
